Experimental data reported in US12643954B2, “Anti-CD36 antibodies and their use to treat cancer” (ONA Therapeutics, S.L., priority 2020, dated 2026).
Blank lines part the entries; values can stand above or below the molecule they belong to.

How the values were obtained:
Detroit 562 cells = experiment: Detroit 562 orthotopic mouse model of oral cancer metastasis; assay type: in vivo; details: single agent; antibody 1 mg/kg i.p. daily, cisplatin 2 mg/kg twice weekly
Protocol: NOD scid gamma (NSG) (NOD.Cg-Prkdc^scidII2rg^tm1Wj1/SzJ) mice were purchased from Charles River and crossed in-house. All mice were housed under a regimen of 12h light/12h dark cycles and SPF conditions, and all procedures were evaluated and approved by the CEEA (Ethical Committee for Animal Experimentation) from the Government of Catalunya. SCC intra-tongue injection was performed as previously described (Oskarsson et al., 2014; Nieman et al., 2011). Briefly, mice were anesthetized by intraperitoneal injection with a mixture of 50 mg per kg of ketamine and 0.5 mg per kg of medetomidin, and SCC cells resuspended in 30 μl PBS were injected into each mouse tongue with a BD ultra-fine 6 mm needle. Mice were monitored for the luciferase bioluminescent signal immediately after injection (TO) and once weekly thereafter with a Xenogen IVIS Imaging System-100 (Caliper Life Sciences). Briefly, animals were injected by retro-orbital injection with 50 μl of D-luciferin (Promega) diluted in 1×PBS at 5 mg ml^−1. […] Data was quantified with the Living Image software version 4.4 (Caliper Life Sciences). Quantifications were calculated with unsaturated pixels. […]
Antibody treatments were administered via intraperitoneal (i.p.) injection daily at a dose of 1 mg/kg. […] Further, mouse body weight was measured twice weekly to update appropriate dosage amounts. […]

FaDu cells = experiment: FaDu orthotopic mouse model of oral cancer metastasis; assay type: in vivo; details: single agent
Protocol: NOD scid gamma (NSG) (NOD.Cg-Prkdc^scidII2rg^tm1Wj1/SzJ) mice were purchased from Charles River and crossed in-house. All mice were housed under a regimen of 12h light/12h dark cycles and SPF conditions, and all procedures were evaluated and approved by the CEEA (Ethical Committee for Animal Experimentation) from the Government of Catalunya. SCC intra-tongue injection was performed as previously described (Oskarsson et al., 2014; Nieman et al., 2011). Briefly, mice were anesthetized by intraperitoneal injection with a mixture of 50 mg per kg of ketamine and 0.5 mg per kg of medetomidin, and SCC cells resuspended in 30 μl PBS were injected into each mouse tongue with a BD ultra-fine 6 mm needle. Mice were monitored for the luciferase bioluminescent signal immediately after injection (TO) and once weekly thereafter with a Xenogen IVIS Imaging System-100 (Caliper Life Sciences). Briefly, animals were injected by retro-orbital injection with 50 μl of D-luciferin (Promega) diluted in 1×PBS at 5 mg ml^−1. Continuous administration of isofluorane gas was provided to ensure anesthetizing animals during imaging. Data was quantified with the Living Image software version 4.4 (Caliper Life Sciences). Quantifications were calculated with unsaturated pixels. Color scale minimum and maximum values are shown in pictures.
Studies on the combination of the effects of the ONA-0-v1 anti-CD36 antibody, both with and without cisplatin, were performed in NSG mice (immuno-deficient). The studies included both male and female mice. All mice were inoculated with commercially available FaDu (ATCC) cancer cells, transduced with a retroviral vector expressing luciferase and the green fluorescent protein (Luc-GFP). FaDu cells were derived from a squamous cell carcinoma (i.e., from an oral cancer). Prior to inoculation, the FaDu cells were cultured in a humidified incubator at 37° C. with 5% CO2, and were grown in EMEM (LONZA) supplemented with 5 μg ml^−1 penicillin/streptomycin and 10% FBS (GIBCO).
For each mouse, 100,000 FaDu cells were inoculated via orthotopic injection.
Treatment of the inoculated mice began nine days after inoculation with the cancer cells. Inoculated mice were divided into four distinct treatment groups.
Antibody treatments were administered via intraperitoneal (i.p.) injection daily at a dose of 1 mg/kg. Cisplatin was administered twice weekly at a dose of 2 mg/kg (Groups 2 and 4). […] During the course of treatment, mice were observed once weekly using an in vivo imaging system (IVIS). Further, mouse body weight was measured twice weekly to update appropriate dosage amounts. At the end of the treatment period, the mice were sacrificed, and organs and tissues were collected for performance of immunohistochemistry analysis.

[1] = target: T1, cells overexpressing human CD36 (Homo sapiens, UniProt P16671); experiment: FACS binding to cells overexpressing human CD36; details: serial dilution up to 100 nM
T1 construct: expressed in transfected cells
Protocol: For FACS analysis, cells were trypsinized, collected in a 15 mL tube and diluted in washing buffer (2% FBS in PBS). Cells were then centrifuged at 1500 rpm for 5 min at 4° C., supernatant was discarded, and cells were resuspended in fresh washing buffer. Anti-CD36 antibodies were either omitted (control wash buffer treatment) or serially diluted in washing buffer (dilution range up to 100 nM), and then added to the cells. Incubation was performed on ice for 1 hour. Cells were then centrifuged at 1500 rpm for 5 min at 4° C., supernatant was discarded, and cells were resuspended in fresh washing buffer. Finally, cells were incubated with a […] (BV421 Rat Anti-Mouse IgA, Becton Dickinson, reference 743293) diluted 1:100 in washing buffer, washed and analysed by FACS.

mouse CD36 = target: T2, mouse CD36 (Mus musculus, UniProt Q08857); experiment: ELISA binding to plate-coated mouse CD36; details: recombinant mouse CD36 coated plates
T2 construct: purchased Sino Biological 50422-M08H
Protocol: (§1) To perform ELISA assays, 96-well ELISA plates were coated over night with human CD36 (Sino Biological, reference 10752-H08H) or mouse CD36 (Sino Biological, reference 50422-M08H) recombinant proteins at a concentration of 0.25 mg/ml. After two washes with PBS, plates were blocked with 4% skimmed milk in PBS for 1 hour at 37° C. Blocking solution was discarded and plates were washed five times with 200 μl/well PBS-Tween20 (0.5%). Primary antibodies were either omitted (control blocking solution treatment) or mixed in blocking solution at several dilutions ranging from 0.01 nM to 0.5 μM. The primary antibody solutions were added to the wells and incubated over night at 4° C. After 5 washes with 200 ul/well of PBS-Tween20 (0.5%), plates were incubated for 1 hour at room temperature with a goat anti-mouse HRP-conjugated antibody (Abeam, reference ab97235) diluted 1:2000 in blocking solution. Plates were then washed 5 times with 200 μl/well of PBS-Tween20 (0.5%), incubated with 100 μl/well TMB and detected after 10 minutes, 30 minutes, or 60 minutes with a spectrophotometer at a wave length of 630 nm.

CD36 = CD36 (Homo sapiens, UniProt P16671); experiment: ELISA binding to plate-coated human CD36; set-up: purchased Sino Biological 10752-H08H; details: recombinant human CD36 coated plates
Protocol: as §1

T2 sequence (Q08857 30-439 limits assumed): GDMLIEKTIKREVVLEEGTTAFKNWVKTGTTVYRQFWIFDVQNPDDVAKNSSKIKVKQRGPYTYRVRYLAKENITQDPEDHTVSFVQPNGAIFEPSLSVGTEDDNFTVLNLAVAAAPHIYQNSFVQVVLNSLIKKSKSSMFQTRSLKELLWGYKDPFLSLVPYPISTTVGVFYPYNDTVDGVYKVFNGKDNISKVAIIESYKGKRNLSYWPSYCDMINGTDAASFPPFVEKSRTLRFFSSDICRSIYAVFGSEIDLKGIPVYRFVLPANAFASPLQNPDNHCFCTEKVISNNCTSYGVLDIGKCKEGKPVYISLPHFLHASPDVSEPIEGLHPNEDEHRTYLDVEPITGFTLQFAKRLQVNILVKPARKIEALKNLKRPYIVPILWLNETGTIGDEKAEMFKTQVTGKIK
Chain of CD36 (P16671 30-439 limits assumed): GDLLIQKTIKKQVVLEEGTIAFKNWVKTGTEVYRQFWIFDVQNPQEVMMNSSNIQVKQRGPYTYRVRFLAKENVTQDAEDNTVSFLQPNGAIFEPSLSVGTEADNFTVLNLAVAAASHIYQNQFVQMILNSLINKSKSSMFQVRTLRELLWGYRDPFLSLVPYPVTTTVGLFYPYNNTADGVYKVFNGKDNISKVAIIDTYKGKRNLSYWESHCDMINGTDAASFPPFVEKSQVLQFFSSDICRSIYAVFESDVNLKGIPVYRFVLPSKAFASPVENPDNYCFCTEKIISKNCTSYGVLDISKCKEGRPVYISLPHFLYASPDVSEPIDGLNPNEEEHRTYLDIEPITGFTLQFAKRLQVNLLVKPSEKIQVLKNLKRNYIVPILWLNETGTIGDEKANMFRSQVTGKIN
T1 sequence (P16671 whole entry): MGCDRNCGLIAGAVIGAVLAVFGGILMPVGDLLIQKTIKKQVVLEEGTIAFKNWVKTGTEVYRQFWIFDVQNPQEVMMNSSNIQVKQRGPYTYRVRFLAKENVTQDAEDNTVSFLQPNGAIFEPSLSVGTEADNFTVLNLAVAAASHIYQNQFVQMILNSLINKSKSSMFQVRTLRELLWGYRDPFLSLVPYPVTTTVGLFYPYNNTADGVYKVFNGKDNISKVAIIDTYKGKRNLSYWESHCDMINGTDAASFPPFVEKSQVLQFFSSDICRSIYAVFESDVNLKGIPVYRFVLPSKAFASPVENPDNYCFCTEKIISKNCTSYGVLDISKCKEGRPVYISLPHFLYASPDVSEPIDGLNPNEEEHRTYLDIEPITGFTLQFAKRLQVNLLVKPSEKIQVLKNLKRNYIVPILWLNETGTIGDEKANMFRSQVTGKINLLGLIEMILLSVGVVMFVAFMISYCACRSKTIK

Molecule: N.N.[Cl][Pt][Cl] [cisplatin, reference compound]
- size of lung metastases (Detroit 562 cells): did reduce the size
- mice in which metastasis into lymph nodes was prevented (FaDu cells; eight tested mice per group): one of the eight
- effect on primary tumor (IVIS imaging and H&E staining) (FaDu cells; antibody 1 mg/kg i.p. daily, cisplatin 2 mg/kg twice weekly): inhibited tumor growth

- binding to cells overexpressing human CD36 (FACS) [1]: bound equivalently
B1: 1G06: chimeric ONA-0-v1 IgG1 antibody; heavy chain SEQ ID NO: 64, light chain SEQ ID NO: 23 (antibody)
heavy: QVQLKQSGADLVRPGASVKLSCKASGYTFTDYYINWVKQRPGQGLEWIARIYPGSGNTYYNEKFKGKATLTAEKSSSTAYMQLSSLTSEDSAVYFCARGIGGGFGMDYWGQGTSVTVSSASTKGPSVFPLAPSSKSTSGGTAALGCLVKDYFPEPVTVSWNSGALTSGVHTFPAVLQSSGLYSLSSVVTVPSSSLGTQTYICNVNHKPSNTKVDKKVEPKSCDKTHTCPPCPAPESTRGPSVFLFPPKPKDTLMISRTPEVTCVVVDVSHEDPEVKFNWYVDGVEVHNAKTKPREEQYNSTYRVVSVLTVLHQDWLNGKEYKCKVSNKALPAPIEKTISKAKGQPREPQVYTLPPSRDELTKNQVSLTCLVKGFYPSDIAVEWESNGQPENNYKTTPPVLDSDGSFFLYSKLTVDKSRWQQGNVFSCSVMHEALHNHYTQKSLSLSPGK
light: SIVMTQTPKFLLVSAGDRITITCKASQSVSDDVAWYQQKPGQSPKLLIYYASNRYTGVPDRFTGSGYGTDFTFTISTVQAEDLAVYFCQQDYSSPLTFGAGTKLEIKRTVAAPSVFIFPPSDEQLKSGTASVVCLLNNFYPREAKVQWKVDNALQSGNSQESVTEQDSKDSTYSLSSTLTLSKADYEKHKVYACEVTHQGLSSPVTKSFNRGEC

- binding to mouse CD36 in ELISA (mouse CD36): did not interact
- binding to human CD36 in ELISA (CD36): did not interact
B2: ONA-0-v2: murine IgA antibody; heavy chain SEQ ID NO: 5, light chain SEQ ID NO: 9 (antibody)
heavy: QVQLKQSGADLVRPGASVKLSCKASGYTFTDYYINWVKQRPGQGLEWIARIYPGSGNTYYNEKFKGKATLTAEKSSSTAYMQLSSLTSEDSAVYFCARGIGGGFGMDYWGQGTSVTVSSESARNPTIYPLTLPPVLCSDPVIIGCLIHDYFPFGTMNVTWGKSGKDITTVNFPPALASGGRYTMSSQLTLPAVECPEGESVKCSVQHDSNPVQELDVNCSPTPPPPITIPSCQPSLSLQRPALEDLLLGSDASITCTLNGLRNPEGAAFTWEPSTGKDAVQKKAAQNSCGCYSVSSVLPGCAERWNSGASFKCTVTHPESGTLTGTIAKVTVNTFPPQVHLLPPPSEELALNELLSLTCLVRAFNPKEVLVRWLHGNEELSPESYLVFEPLKEPGEGATTYLVTSVLRVSAETWKQGDQYSCMVGHEALPMNFTQKTIDRLSGKPTNVSVSVIMSEGDGICY
light: NIVMTQSPKSMSMSVGERVTLTCKASENVVTYVSWYQQKPEQSPKLLIYGASNRYTGVPDRFTGSGSATDFTLTISSVQAEDLADYHCGQGYSYPYTFGGGTKLEIKRADAAPTVSIFPPSSEQLTSGGASVVCFLNNFYPKDINVKWKIDGSERQNGVLNSWTDQDSKDSTYSMSSTLTLTKDEYERHNSYTCEATHKTSTSPIVKSFNRNEC
modifications: ONA-0-v1 heavy chain; ONA-0-v2 light chain
